Data published in paper PMC11790958, “Molecular mechanism of condensin I activation by KIF4A” (The EMBO Journal, 2024).
Residues, ends and D or L forms follow the SMILES beside them. No end group written: not given here. *: point of attachment. 5FAM = O=C1OC2(c3ccc(O)cc3Oc3cc(O)ccc32)c2ccc(C(=O)*)cc21; 5‑FAM = 5-carboxyfluorescein label

What was measured:
NCAPG [1] = target: T1, NCAPG (Homo sapiens, UniProt Q9BPX3); assay: Fluorescence polarisation binding assay of 5-FAM peptides with NCAPG; conditions: FP, 100 nM 5-FAM peptide; Kd not fit
T1 construct: ystrep (Strep tag); made in house; host or cells: Sf9 insect cells (baculovirus)
Procedure: (§1) Fluorescence polarisation binding assays were performed by mixing 100 nM of 5-FAM labelled peptide (Reagents and Tools Table) with indicated concentration of protein in FP buffer (20 mM HEPES pH 8, 150 mM KCl, 2.5 mM MgCl, 5% glycerol, 1 mM DTT) and incubated at room temperature for 15 min before reading the plate with a POLARstar Omega plate reader (BMG). The plate was read three times at 5 min intervals to ensure samples reached equilibrium and three technical replicates were performed, setting up a new plate, with distinct protein aliquot in each case. Data was analysed and plotted in Graphpad Prism and Kd fit using the following: FP=FPmax/2[Pep]([C]+[Pep]+Kd)−([C]+[Pep]+Kd)^2−4.[C].[Pep] Where [C] and [Pep] are the concentration, in μM, of condensin and 5-FAM labelled peptide respectively, FPmax the maximum change in fluorescence polarisation in mP and Kd is the equilibrium dissociation constant. Fit curves are plotted, with standard deviation.

CI NdelH, D2delC = assay: Fluorescence polarisation competition assay, 5-FAM NCAPH peptide and CI NdelH, D2delC; format: binding, human; conditions: 100 nM 5-FAM-NCAPH55-77 with 4 μM CID2ΔC,NΔH
Procedure: FP competition assays were performed for NCAPD2 peptide, using a fixed concentration of 100 nM of F-NCAPD2-C1376-1398 and 6 μM of NCAPG, in the presence or absence of 10 μM KIF4A WT1206-1228 or KIF4A Mut1206-1228 peptide. Similar assays were performed for NCAPH2 peptide, using a fixed concentration of 100 nM of F-N-NCAPH55-77 and 4 μM CI NdelH, D2delC, in the presence or absence of 100 μM of KIF4A WT1206-1228 or KIF4A Mut1206-1228 peptide.
(§2) Background was determined by measuring 100 nM of F-NCAPD2-C1376-1398 or F-N-NCAPH55-77 in the presence of peptide buffer (20 mM HEPES pH 8), KIF4A WT1206-1228 or KIF4A Mut1206-1228 peptide, and subtracted from each measurement. Assay was performed with three technical repeats, setting up a new plate with distinct protein aliquot each time, reading the plate three times to ensure equilibrium. Data analysed and plotted using GraphPad Prism.

[2] = target: T2, CID2ΔC (condensin I lacking NCAPD2 C-terminal region) (Homo sapiens, UniProt Q9BPX3); assay: Fluorescence polarisation binding assay of 5-FAM peptides with CID2ΔC; conditions: FP, 100 nM 5-FAM peptide titrated with CID2ΔC, three technical replicates, ± standard error
T2 construct: made in house; host or cells: Sf9 insect cells (baculovirus)
Procedure: as §1

condensin I [3] = assay: ATPase activity assay (EnzCheck phosphate assay), basal; format: biochemical, human; conditions: for effect of peptide on ATPase activity of CI: 50 nM CI
Procedure: ATPase assays were performed based on the method described previously (Voulgaris and Gligoris, [2019]) using the EnzCheck phosphate assay kit (Invitrogen). Condensin I complexes were used at a final concentration of 50 nM, while HAWK subunits were used at 100 nM and peptides were used at 50 μM. Basal ATPase assays were performed with final salt concentration of 100 mM KCl. DNA titrations were performed with 50 bp dsDNA annealed by heating to 98 degrees and slowly cooling in annealing buffer (10 mM Tris pH 7.5, 50 mM NaCl, 1 mM EDTA).
Plate was read with a POLARstar Omega plate reader (BMG).

NCAPG [4] = target: T1, NCAPG; assay: Fluorescence polarisation competition assay, 5-FAM NCAPD2 peptide and NCAPG; format: binding; conditions: 100 nM 5-FAM-NCAPD2_1376-1398, 10 μM competing peptide, mean ± SD
Procedure: […] Similar assays were performed for NCAPH2 peptide, using a fixed concentration of 100 nM of F-N-NCAPH55-77 and 4 μM CI NdelH, D2delC, in the presence or absence of 100 μM of KIF4A WT1206-1228 or KIF4A Mut1206-1228 peptide.
as §2

condensin I [5] = assay: Single-molecule loop extrusion assay, loop extrusion rate; format: biochemical, human; conditions: without flow, 0.75 nM-3 nM protein, peptide at 1000x
Procedure: Real-time imaging of the loop extrusion by condensin I was carried out in the aforementioned flow cells as follows. The channel was washed with T50 buffer (40 mM Tris-HCl pH 8.0, 50 mM NaCl, 0.2 mM EDTA), incubated with 1 µM Streptavidin in T50 buffer for 2 min and incubated with 5 mg/ml BSA in T50 buffer for 5 min to further reduce unspecific binding of proteins to the surface. The excess Streptavidin and BSA were washed thoroughly with T50 buffer. Lambda DNA biotinylated at both ends was introduced to the channel at a flow rate of 2 µl/min facilitating surface attachment through the streptavidin–biotin binding. […]
ROIs with a DNA strand that formed a loop were cropped and saved in TIFF format for further analysis. […] The kymographs were built by summing the fluorescence intensity for 11 pixels along the line centred around the DNA axis from the median filtered images. […]
For the determination of the loop extrusion rate, each line in the kymograph was split into three regions: “Up”, “Loop” and “Down” (Fig. 4D). For this, first the loop region was determined as follows: Using the “find_peaks” function from the package signal from the Python module scipy local intensity maxima in each line of the kymograph was determined. […] The loop extrusion rate in Fig. 4G was determined by fitting a linear function f(x) = kx + c to the initial 5 s of the loop growth curve. […]

condensin I [6] = assay: Single-molecule loop extrusion assay, fraction of looped DNA; format: biochemical, human; conditions: for fraction of looped DNA: 0.5 nM condensin I WT, peptide at 1000x
Procedure: Real-time imaging of the loop extrusion by condensin I was carried out in the aforementioned flow cells as follows. The channel was washed with T50 buffer (40 mM Tris-HCl pH 8.0, 50 mM NaCl, 0.2 mM EDTA), incubated with 1 µM Streptavidin in T50 buffer for 2 min and incubated with 5 mg/ml BSA in T50 buffer for 5 min to further reduce unspecific binding of proteins to the surface. The excess Streptavidin and BSA were washed thoroughly with T50 buffer. Lambda DNA biotinylated at both ends was introduced to the channel at a flow rate of 2 µl/min facilitating surface attachment through the streptavidin–biotin binding. The flow was adjusted and kept constant with a syringe pump attached to the outlet of the flow cell. Excess DNA was washed thoroughly with T50 buffer.
The surface attached DNA molecules were imaged in the imaging buffer (40 mM Tris-HCl pH 7.5, 2 mM Trolox, 30 mM D-glucose, 50 mM Potassium Glutamate (L-Glutamic acid monopotassium salt monohydrate), 2.5 mM MgCl2, 1 mg/ml BSA, 1 mM TCEP, 2.5 mM ATP, 100 nM Sytox Orange, 30 mg/ml Glucose Oxidase (15 U/ml), 20 mg/ml Catalase (1000 U/ml)). The imaging buffer supplied with used condensin I variant was introduced into the channel at a flow rate of 10 µl/min for 100 s and the flow was stopped afterward. For the activity assay comparing condensin I WT and condensin I ΔNCAPG 1 nM of protein, for the activity assay comparing condensin I WT and condensin I WT supplied with KIF4A peptide 0.5 nM of protein and 1000× of the KIF4A peptide, for the analysis of loop extrusion rate 0.75 nM–3 nM of protein (in the case of condensin I WT supplied with KIF4A peptide, correspondingly 1000× of KIF4A peptide) was used.
Region of interests (ROIs) containing a single Lambda DNA molecule were chosen manually and annotated using the tools provided by the Python package Napari. For a single loop extrusion experiment, a field of contains ~100–200 DNA strands. Only the strands that were tethered at both ends from the beginning to the end of the data acquisition were considered for the analysis. Each of the DNA strands were manually analysed whether they form at least one loop during an acquisition time of 1000 s, including the initial 100 s of flow. The “fraction of looped DNA” (Fig. 4B,C) was defined as the ratio of the number of the DNA strands which form at least one loop to the total number of DNA strands. This quantity was taken as a measure for the activity of the protein. […] (For 1 nM condensin I WT 4, for 1 nM condensin I ΔNCAPG 10, for 0.5 nM condensin I WT 3, For 0.5 nM condensin I WT supplied with 0.5 µM KIF4A three independent experiments were performed and analysed.) The error bars in the Fig. 4 are given by the standard deviation of these datasets. […]

“5-FAM-FPQNDDEKERLQRRRSRVFDLQF ({5‑FAM}-FPQNDDEKERLQRRRSRVFDLQF) [5-FAM-NCAPH55–77, 5-FAM labelled peptide of NCAPH residues 55-77]” was tested, and the “binding to NCAPG” value (NCAPG [1]) was “low affinity”, the “FP signal without competitor” value (CI NdelH, D2delC) was 37 ± 7 mP and the “FP signal without competitor” value (CI NdelH, D2delC; listed as NCAPH peptide) was ~ 35 mP.
In the case of CC[C@H](C)[C@H](NC(=O)[C@@H]1CCCN1C(=O)[C@H](CO)NC(=O)[C@H](CS)NC(=O)CNC(=O)[C@H](CO)NC(=O)[C@H](Cc1ccccc1)NC(=O)[C@H](Cc1ccccc1)NC(=O)[C@H](CO)NC(=O)[C@@H](NC(=O)[C@H](CC(N)=O)NC(=O)[C@H](CO)NC(=O)[C@H](C)NC(=O)[C@H](CC(C)C)NC(=O)[C@H](C)NC(=O)[C@H](CCCNC(=N)N)NC(=O)[C@H](CCCCN)NC(=O)[C@H](CCCCN)NC(=O)[C@H](CCCCN)NC(=O)[C@H](CCCCN)NC(=O)CNC(=O)[C@@H]1CCCN1C(=O)c1ccc2c(c1)C(=O)OC21c2ccc(O)cc2Oc2cc(O)ccc21)[C@@H](C)O)C(=O)N[C@@H](CCC(=O)O)C(=O)O [5-FAM-KIF4A1206–1228] (5FAM-PGKKKKRALASNTSFFSGCSPIE-OH), the Kd [2] is reported as 2.8 ± 0.2 µM.
With “KIF4Amut peptide (PGKKAAAAGAAATSFFSGCSPIE)” the Fit rates (condensin I [3]; CI D2delC + peptide, replicate 1) was 10.29 ATPase per molecule, per minute, the Fit rates (condensin I [3]; CI D2delC + peptide, replicate 2) was 11.11 ATPase per molecule, per minute and the Fit rates (condensin I [3]; CI D2delC + peptide, replicate 3) was 10.2 ATPase per molecule, per minute. For the same compound, the Fit rates (condensin I [3]; CI D2delC + peptide, replicate 4) was 15.62 ATPase per molecule, per minute, the Fit rates (condensin I [3]; CI D2delC + peptide, replicate 5) was 27.72 ATPase per molecule, per minute and the Fit rates (condensin I [3]; CI NdelH + peptide, replicate 1) was 29.41 ATPase per molecule, per minute. The Fit rates (condensin I [3]; CI NdelH + peptide, replicate 2) was 35.68 ATPase per molecule, per minute, the Fit rates (condensin I [3]; CI NdelH + peptide, replicate 3) was 31.03 ATPase per molecule, per minute and the Fit rates (condensin I [3]; CI NdelH D2delC + peptide, replicate 1) was 28.18 ATPase per molecule, per minute. For the same compound, the Fit rates (condensin I [3]; CI NdelH D2delC + peptide, replicate 2) was 29.84 ATPase per molecule, per minute, the Fit rates (condensin I [3]; CI NdelH D2delC + peptide, replicate 3) was 39.65 ATPase per molecule, per minute and the Fit rates (condensin I [3]; CIWT + peptide, replicate 1) was 10.26 ATPase per molecule, per minute. The Fit rates (condensin I [3]; CIWT + peptide, replicate 2) was 7.215 ATPase per molecule, per minute, the Fit rates (condensin I [3]; CIWT + peptide, replicate 3) was 8.551 ATPase per molecule, per minute and the Fit rates (condensin I [3]; CIWT + peptide, replicate 4) was 10.06 ATPase per molecule, per minute. The Fit rates (condensin I [3]; CIWT + peptide, replicate 5) was 14.77 ATPase per molecule, per minute and the Fit rates (condensin I [3]; CIWT + peptide, replicate 6) was 10.26 ATPase per molecule, per minute.
With PGKKAAAAGAAATSFFSGCSPIE [KIF4A mut] the “effect of peptide on ATPase activity of CI” value (condensin I [3]; 50 μM peptide, 3 repeats) was “no increase in activity” and the “FP signal on addition of competing peptide” value (NCAPG [4]) was “not significantly changed”.
In the case of “PGKKKKRALASNTSFFSGCSPIE [KIF4A1206-1228, KIF4A SLiM peptide, residues 1206-1228, unlabelled]”, the “loop extrusion rate compared to CIWT” value (condensin I [5]) is reported as “no significant difference”, the “fraction of looped DNA” value (condensin I [6]; experiment 1) is reported as 0.9481 and the “fraction of looped DNA” value (condensin I [6]; experiment 2) is reported as 1. For the same compound, the “fraction of looped DNA” value (condensin I [6]; experiment 3) was 0.9388, the “tethers having DNA loops” value (condensin I [6]; 0.5 nM condensin I, with or without 0.5 μM KIF4A1206-1228 peptide, 1000 s acquisition, mean of n = 3 experiments) was ~ 96% and the “effect of peptide on ATPase activity of CI” value (condensin I [3]; 50 μM peptide, 3 repeats) was “small but significant increase”. The “effect of peptide on ATPase rate of CINΔH” value (condensin I [3]; 50 nM CINΔH, 50 μM peptide, 3 repeats) was “no additional stimulation”, the “effect of peptide on ATPase rate of CINΔH,D3ΔC” value (condensin I [3]; 50 nM CINΔH,D3ΔC, 50 μM peptide, 3 repeats) was “no additional stimulation” and the “FP signal on addition of competing peptide” value (CI NdelH, D2delC; 100 μM competing peptide, listed as KIF4a peptide) was ~ 20 mP.
